According to patent US8461085B2, “Bioherbicide from Festuca spp” (Cornell Research Foundation, Inc., priority 2005, dated 2013):
“Also recorded” adds a separate entry of the source.

Key:
[1] = test system: Arabidopsis thaliana seedlings; test: Arabidopsis root growth inhibition in growth media; assay type: in vivo; conditions: for relative toxicity of the D, L and DL forms: Arabidopsis thaliana seedlings
[2] = test system: lettuce seedlings (Lactuca sativa L.); test: Petri-dish bioassay, radicle elongation in lettuce seedlings; assay type: in vivo; conditions: lettuce seedlings

| Structure (SMILES) | toxicity of the three forms at 40 μM [1] | relative toxicity of the D, L and DL forms [1] | further results |
| --- | --- | --- | --- |
| N[C@H](Cc1cccc(O)c1)C(=O)O [D-m-tyrosine] | same level of toxicity | less toxic at low concentrations |  |
| NC(Cc1cccc(O)c1)C(=O)O (stereo not drawn) [DL m-tyrosine] | same level of toxicity | roughly equal toxicity |  |
| N[C@@H](Cc1cccc(O)c1)C(=O)O [L-m-tyrosine, L-3′-hydroxyphenylalanine] | same level of toxicity | roughly equal toxicity |  |
| O=C(O)C(=O)Cc1cccc(O)c1 [m-hydroxyphenylpyruvic acid] |  |  | toxicity compared with m-tyrosine ([1]; Arabidopsis root growth): as toxic as m-tyrosine; root growth of Arabidopsis when phenylalanine is added to the media ([1]; in vivo): not rescued |
| N[C@@H](Cc1ccccc1O)C(=O)O [o-tyrosine, 2′-hydroxyphenylalanine] |  |  | phytotoxicity [2]: no toxicity; also recorded: not phytotoxic; also recorded: devoid of herbicidal activity |
| N[C@@H](Cc1ccc(O)cc1)C(=O)O [p-tyrosine, tyrosine] |  |  | phytotoxicity [2]: no toxicity; also recorded: not phytotoxic; rescue of root growth inhibition initiated by 3 μM of m-tyrosine ([1]; concentrations up to 1 mM): did not rescue |
| N[C@@H](Cc1ccccc1)C(=O)O [phenylalanine, reference compound] |  |  | root growth restored by addition of phenylalanine ([1]; root growth inhibition initiated by m-tyrosine): 80 % of the control levels |
